The source of these data is ChEMBL document CHEMBL1155426, “Discovery of a novel series of semisynthetic vancomycin derivatives effective against vancomycin-resistant bacteria” (J Med Chem, 2010).

Usually MIC stands for the lowest concentration that inhibits growth of the organism. A lower MIC goes with a more susceptible organism. As usually defined, the pKd is the Kd on a negative log10 scale, so that one unit is a factor of ten.

pKd: −log10 of the molar value. Values after ≈ are worked out from the molar mass of the structure shown. Bounds are passed on as bounds.

For assay [1], the system named is Enterococcus faecium. Description: Antibacterial activity against vancomycin-susceptible Enterococcus faecium SR-16972. Particulars: SR16972. Format: functional.
The subject of assay [2] is Enterococcus faecium. Description: Antibacterial activity against vancomycin A-resistant Enterococcus faecium SR-7940. Format: functional. Particulars: SR7940.
For assay [3], the system named is Staphylococcus aureus. Kind of assay: Antibacterial activity against methicillin-resistant vancomycin-susceptible Staphylococcus aureus SR-3637. Particulars: SR3637. Format: functional.
The test system of assay [4] is Enterococcus faecalis. Kind of assay: Antibacterial activity against vancomycin A-resistant Enterococcus faecalis SR-7914. Format: functional. Particulars: SR7914.
For assay [5], the system named is Enterococcus faecalis. Description: Antibacterial activity against vancomycin B-resistant Enterococcus faecalis SR-23630. Particulars: SR23630. Format: functional.
Assay [6] relates to Staphylococcus aureus. Description: Antibacterial activity against vancomycin-susceptible Staphylococcus aureus RN4220. Format: functional.
Assay [7] relates to Staphylococcus aureus. Kind of assay: Antibacterial activity against vancomycin A-resistant Staphylococcus aureus VRS2. It is filed as functional.
Assay [8] concerns Enterococcus faecium. Kind of assay: Antibacterial activity against vancomycin B-resistant Enterococcus faecium SR-23598. It is filed as functional. Particulars: SR23598.
Assay [9] in a line: Binding affinity to 8-Amino-octanoyl-D-Ala-D-Ala peptide by surface plasmon resonance. On the technique in general: In SPR one partner is held on a chip, and binding of the other changes the refractive index at the surface.
The subject of assay [10] is Enterococcus faecalis. Kind of assay: Antibacterial activity against vancomycin-susceptible Enterococcus faecalis SR1004. It is filed as functional.

Turning to `CCCCCC/C=C/c1cc2ccc1Oc1cc3cc(c1O[C@@H]1O[C@H](CO)[C@@H](O)[C@H](O)[C@H]1O[C@H]1C[C@](C)(N)[C@H](O)[C@H](C)O1)Oc1ccc(cc1/C=C/CCCCCC)[C@@H](O)[C@@H](NC(=O)[C@@H](CC(C)C)NC)C(=O)N[C@@H](CC(N)=O)C(=O)N[C@H]3C(=O)N[C@H]1C(=O)N[C@H](C(=O)N[C@H](C(=O)O)c3cc(O)cc(O)c3-c3cc1ccc3O)[C@@H]2O`, the MIC is 32 µg/mL (≈ 20 µM) in the assay with Enterococcus faecium [1]; greater than 64 µg/mL with Enterococcus faecium [2]; 64 µg/mL (≈ 40 µM) in the assay on Staphylococcus aureus [3]; greater than 64 µg/mL against Enterococcus faecalis [4]; greater than 64 µg/mL against Enterococcus faecalis [5]; 32 µg/mL (≈ 20 µM) against Staphylococcus aureus [6]. The MIC against Staphylococcus aureus [7] was greater than 64 µg/mL; against Enterococcus faecium [8], greater than 64 µg/mL; in the assay on Enterococcus faecalis [10], 32 µg/mL (≈ 20 µM). The pKd in assay [9] was 4.94.

As for `CCCCCC/C=C/c1cc2ccc1Oc1cc3cc(c1O[C@@H]1O[C@H](CO)[C@@H](O)[C@H](O)[C@H]1O[C@H]1C[C@](C)(N)[C@H](O)[C@H](C)O1)Oc1ccc(cc1Cl)[C@@H](O)[C@@H](NC(=O)[C@@H](CC(C)C)NC)C(=O)N[C@@H](CC(N)=O)C(=O)N[C@H]3C(=O)N[C@H]1C(=O)N[C@H](C(=O)N[C@H](C(=O)O)c3cc(O)cc(O)c3-c3cc1ccc3O)[C@@H]2O`, the MIC in the assay with Enterococcus faecium [1] was 2 µg/mL (≈ 1.31 µM); against Enterococcus faecium [2], greater than 64 µg/mL; against Staphylococcus aureus [3], 2 µg/mL (≈ 1.31 µM); in the assay on Enterococcus faecalis [4] it was greater than 64 µg/mL; in the assay on Enterococcus faecalis [5], greater than 64 µg/mL; against Staphylococcus aureus [6] it was 1 µg/mL (≈ 0.656 µM). Further, the values for the MIC in the assay with Staphylococcus aureus [7], in the assay on Enterococcus faecium [8] and in the assay with Enterococcus faecalis [10] were greater than 64 µg/mL, greater than 64 µg/mL and 2 µg/mL (≈ 1.31 µM), respectively. The negative logarithm of the Kd (pKd) in assay [9] was 5.42.
